Our source for the Ki values is patent US20060166985A1, “Pyrrolydin-2-one derivatives as inhibitors of thrombin and factor xa” (priority 2002, published 2006).

Usually Ki stands for the equilibrium dissociation constant of an inhibitor or competing ligand from its target.

The assay deals with human Thrombin (Homo sapiens, UniProt P00734). Kind of assay: In vitro assay for inhibition of Thrombin (chromogenic or fluorogenic assay). The format is biochemical. As to conditions: Example 2 chromogenic assay, other Examples fluorogenic assay, read-out: thrombin inhibitory Ki.
As to `CCOC[C@@H](C(=O)N1CCOCC1)N1CC[C@H](NS(=O)(=O)CCc2ccc(Cl)cc2)C1=O` [Example 86, 2-(4-chlorophenyl)-N-((3S)-1-[(1S)-1-[(ethyloxy)methyl]-2-(4-morpholinyl)-2-oxoethyl]-2-oxo-3-pyrrolidinyl}ethanesulfonamide], the Ki is less than 25 nM.

With `CCOC[C@@H](C(=O)N1CCOCC1)N1CC[C@H](NS(=O)(=O)/C=C(\C)c2ccc(Cl)s2)C1=O` [Example 87, (1E)-2-(5-chloro-2-thienyl)-N-{(3S)-1-[(1S)-1-[(ethyloxy)methyl]-2-(4-morpholinyl)-2-oxoethyl]-2-oxo-3-pyrrolidinyl}-1-propene-1-sulfonamide], the inhibitory constant (Ki) was less than 10 nM.

As to `COCC[C@@H](C(=O)N1CCOCC1)N1CC[C@H](NS(=O)(=O)CCc2ccc(Cl)s2)C1=O` [Example 88], the Ki is less than 25 nM.

As to `COC[C@@H](C(=O)N1CCOCC1)N1CC[C@H](NS(=O)(=O)CCc2ccc(Cl)cc2)C1=O` [Example 89, 2-(4-chlorophenyl)-N-{(3S)-1-[(1S)-1-[(methyloxy)methyl]-2-(4-morpholinyl)-2-oxoethyl]-2-oxo-3-pyrrolidinyl}ethanesulfonamide], the Ki is less than 50 nM.

As for `O=C([C@H](Cc1ccncc1)N1CC[C@H](NS(=O)(=O)CCc2ccc(Cl)s2)C1=O)N1CCOCC1` [Example 90, 2-(5-chloro-2-thienyl)-N-{(3S)-1-[(1S)-2-(4-morpholinyl)-2-oxo-1-(4-pyridinylmethyl)ethyl]-2-oxo-3-pyrrolidinyl}ethanesulfonamide], the Ki was less than 50 nM.

With `O=C([C@H](Cc1cccnc1)N1CC[C@H](NS(=O)(=O)CCc2ccc(Cl)s2)C1=O)N1CCOCC1` [Example 91, 2-(5-chloro-2-thienyl)-N-{(3S)-1-[(1S)-2-(4-morpholinyl)-2-oxo-1-(3-pyridinylmethyl)ethyl]-2-oxo-3-pyrrolidinyl}ethanesulfonamide], the Ki was less than 10 nM.

With `CN(C)CC[C@@H](C(=O)N1CCOCC1)N1CC[C@H](NS(=O)(=O)CCc2ccc(Cl)s2)C1=O` [Example 93, 2-(5-chloro-2-thienyl)-N-{(3S)-1-[(1S)-3-(dimethylamino)-1-(4-morpholinylcarbonyl)propyl]-2-oxo-3-pyrrolidinyl}ethanesulfonamide], the Ki was less than 100 nM.

With `O=C([C@H](CCN1CCCCC1)N1CC[C@H](NS(=O)(=O)CCc2ccc(Cl)s2)C1=O)N1CCOCC1` [Example 94, 2-(5-chloro-2-thienyl)-N-{(3S)-1-[(1S)-1-(4-morpholinylcarbonyl)-3-(1-piperidinyl)propyl]-2-oxo-3-pyrrolidinyl}ethanesulfonamide], the Ki was less than 100 nM.

`O=C([C@H](CCN1CCOCC1)N1CC[C@H](NS(=O)(=O)CCc2ccc(Cl)s2)C1=O)N1CCOCC1` [Example 95, 2-(5-chloro-2-thienyl)-N-{(3S)-1-[(1S)-3-(4-morpholinyl)-1-(4-morpholinylcarbonyl)propyl]-2-oxo-3-pyrrolidinyl}ethanesulfonamide]: the Ki was less than 100 nM.

As to `C/C(=C\S(=O)(=O)N[C@H]1CCN([C@@H](CCN2CCOCC2)C(=O)N2CCOCC2)C1=O)c1ccc(Cl)s1` [Example 96, (1E)-2-(5-chloro-2-thienyl)-N-{(3S)-1-[(1S)-3-(4-morpholinyl)-1-(4-morpholinylcarbonyl)propyl]-2-oxo-3-pyrrolidinyl}-1-propene-1-sulfonamide], the Ki is less than 50 nM.

For the molecule `COC[C@@H](C(=O)N1CCOCC1)N1CC[C@H](N(CC(=O)N(C)C)S(=O)(=O)CCc2ccc(Cl)s2)C1=O` [Example 97, N^2-{[2-(5-chloro-2-thienyl)ethyl]sulfonyl}-N^1,N^1-dimethyl-N^2-{(3S)-1-[(1S)-1-[(methyloxy)methyl]-2-(4-morpholinyl)-2-oxoethyl]-2-oxo-3-pyrrolidinyl}glycinamide], the inhibition constant Ki is less than 50 nM.

`CNC(=O)CN([C@H]1CCN([C@@H](COC)C(=O)N2CCOCC2)C1=O)S(=O)(=O)CCc1ccc(Cl)s1` [Example 98, N^2-{(2-(5-chloro-2-thienyl)ethyl]sulfonyl}-N^1-methyl-N^2-{(3S)-1-[(1S)-1-[(methyloxy)methyl]-2-(4-morpholinyl)-2-oxoethyl]-2-oxo-3-pyrrolidinyl}glycinamide]: the Ki was less than 10 nM.

Take `CS(=O)(=O)CC[C@@H](C(=O)N1CCOCC1)N1CC[C@H](NS(=O)(=O)CCc2ccc(Cl)cc2)C1=O` [Example 99, 2-(4-chlorophenyl)-N-{(3S)-1-[(1S)-3-(methylsulfonyl)-1-(4-morpholinylcarbonyl)propyl]-2-oxo-3-pyrrolidinyl}ethanesulfonamide]: the Ki is less than 200 nM.
